Assay results from patent publication US20220396673A1, “METHOD FOR HYDRATING WATER-INSOLUBLE POLYMER CAPABLE OF CONTAINING INTERMEDIATE WATER” (KYUSHU UNIVERSITY, NATIONAL UNIVERSITY CORPORATION, priority 2019, published 2022).

Assay: Incorporation of fat-soluble drug into white turbid aggregate containing PMEA
Conditions: diluted in PBS, 37° C., fluorescence microscopy after 3 days
Procedure: The dialysis was carried out for 3 days while changing the purified water until the coloring of the external solvent by the elution of DOX was sufficiently removed.
In addition, the white turbid aggregate was diluted in PBS, allowed to stand in an incubator at 37° C., and then the doxorubicin content was confirmed by fluorescence microscopy (after 3 days).

doxorubicin content of the aggregate after storage: confirmed
SMILES: COc1cccc2c1C(=O)c1c(O)c3c(c(O)c1C2=O)C[C@@](O)(C(=O)CO)C[C@@H]3O[C@H]1C[C@H](N)[C@H](O)[C@H](C)O1 [doxorubicin]
